In one experiment the target is T1, MMP-1 (Homo sapiens, UniProt P03956).
T1 sequence (P03956 100-469): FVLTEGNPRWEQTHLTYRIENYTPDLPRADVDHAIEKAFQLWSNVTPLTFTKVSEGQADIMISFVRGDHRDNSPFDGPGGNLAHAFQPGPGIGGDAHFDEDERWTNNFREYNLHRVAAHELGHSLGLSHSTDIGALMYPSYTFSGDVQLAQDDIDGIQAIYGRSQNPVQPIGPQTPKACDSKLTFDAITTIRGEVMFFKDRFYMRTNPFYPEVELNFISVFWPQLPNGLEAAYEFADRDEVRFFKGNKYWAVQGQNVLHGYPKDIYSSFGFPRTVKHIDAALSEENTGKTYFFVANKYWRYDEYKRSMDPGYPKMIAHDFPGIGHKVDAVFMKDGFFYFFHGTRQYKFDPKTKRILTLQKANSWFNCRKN
Kind of experiment: Inhibition of Human Collagenase (MMP-1). Format: biochemical. To be noted: human recombinant collagenase, fluorogenic substrate 10 μM, room temperature. The procedure:
Biological Assay Inhibition of Human Collacienase (MMP-1)
Human recombinant collagenase is activated with trypsin using the following ratio: 10 μg trypsin per 100 μg of collagenase. The trypsin and collagenase are incubated at room temperature for 10 minutes then a five fold excess (50 μg/10 μg trypsin) of soybean trypsin inhibitor is added.
10 mM stock solutions of inhibitors are made up in dimethyl sulfoxide and then dilute using the following Scheme:
Twenty-five microliters of each concentration is then added in triplicate to appropriate wells of a 96 well microfluor plate. The final concentration of inhibitor will be a 1:4 dilution after addition of enzyme and substrate. Positive controls (enzyme, no inhibitor) are set up in wells D1-D6 and blanks (no enzyme, no inhibitors) are set in wells D7-D12.
Collagenase is diluted to 400 ng/ml and 25 μl is then added to appropriate wells of the microfluor plate. Final concentration of collagenase in the assay is 100 ng/ml. […]
Fluorescence readings (360 nm excitation, 460 nm emission) were taken at time 0 and then at 20 minute intervals. […]
Fluorescence vs time is then plotted for both the blank and collagenase containing samples (data from triplicate determinations is averaged). […] Data is plotted as inhibitor concentration vs % control (inhibitor fluorescence divided by fluorescence of collagenase alone×100). […]

A further experiment deals with MMP-13 (Homo sapiens, UniProt P45452). Kind of experiment: Inhibition of MMP-13. Format: biochemical. The conditions noted are these: human recombinant MMP-13, fluorogenic substrate 10 μM. The procedure: Human recombinant MMP-13 is activated with 2 mM APMA (p-aminophenyl mercuric acetate) for 1.5 hours, at 37° C. and is diluted to […] in assay buffer (50 mM Tris, pH 7.5, 200 mM sodium chloride, 5 mM calcium chloride, 20 μM zinc chloride, 0.02% brij). Twenty-five microliters of diluted enzyme is added per well of a 96 well microfluor plate. The enzyme is then diluted in a 1:4 ratio in the assay by the addition of inhibitor and substrate to give a final concentration in the assay of […].
10 mM stock solutions of inhibitors are made up in dimethyl sulfoxide and then diluted in assay buffer as per the inhibitor dilution scheme for inhibition of human collagenase (MMP-1): Twenty-five microliters of each concentration is added in triplicate to the microfluor plate. The final concentrations in the assay are 30 μM, 3 μM, 0.3 μM, and 0.03 μM.
Substrate (Dnp-Pro-Cha-Gly-Cys(Me)-His-Ala-Lys(NMA)-NH2) is prepared as for inhibition of human collagenase (MMP-1) and […] is added to each well to give a final assay concentration of 10 μM. Fluorescence readings (360 nm excitation; 450 emission) are taken at time 0 and every 5 minutes for 1 hour.
Positive controls consist of enzyme and substrate with no inhibitor and blanks consist of substrate only.
IC50 's are determined as per inhibition of human collagenase (MMP-1). […]

Each structure is given as a SMILES string.

By IC50 is commonly meant the concentration at which inhibition is half-maximal. With `O=C(O)CCN(C1(C(=O)NO)CCC1)S(=O)(=O)c1ccc(Oc2ccc(F)cc2)cc1` [1 (R^1 = H), 3-[[4-(4-Fluorophenoxy)phenylsulfonyl]-1[(N-hydroxycarbamoyl)cyclobutyl]amino]propionic acid], the figures for the IC50 at MMP-1 and on MMP-13 were 90 nM and 0.6 nM, respectively.

Turning to `CCOC(=O)CCN(C1(C(=O)NO)CCC1)S(=O)(=O)c1ccc(Oc2ccc(F)cc2)cc1` [1 (R^1 = ethyl), Ethyl 3-[[4-(4-fluorophenoxy)phenylsulfonyl]-1-[(N-hydroxycarbamoyl)cyclobutyl]amino]propionate], the IC50 stood at 18 nM on MMP-1 and 0.6 nM on MMP-13.

Values taken from US6156798A, “Cyclobutyl-aryloxyarylsulfonylamino hydroxamic acid derivatives” (Pfizer Inc, priority 1999, dated 2000).
